Measured values taken from US20240366589A1, “NHE3-BINDING COMPOUNDS AND METHODS FOR INHIBITING PHOSPHATE TRANSPORT” (Ardelyx, Inc., priority 2013, published 2024).
One block for each molecule: values may come before it.

What was measured:
[1] = tested on: intestinal phosphate uptake; test: Pharmacodynamic study with 33P oral challenge in normal function rats; format: in vivo, rat; settings: 10 mg/kg; for Pi uptake after 33P oral challenge: 8 mM Pi with 33P, dihydrochloride salts, FIG. 1A
Procedure: The compounds identified as Cpds 003, 004, and 005 (from Table E4, as their dihydrochloride salts) were tested for the ability to block intestinal phosphate uptake in rats. Rats were orally challenged with dosing solutions composed of 5 ml/kg (˜1.3 ml) of 8 mM Pi with ^33P and +/−10 mg/kg of test compound. Also included were dosing solutions further composed of either (i) 75 mM glucose+4 mM Ca or (ii) 4 mM Ca.

Human NHE3 [2] = biological target: T1, Human NHE3 (Homo sapiens, UniProt P48764); test: Cell-based NHE3 activity under persistent conditions (60 min incubation, washout), human NHE3; settings: Table E5; dihydrochloride salt
T1 construct: expressed in transfected cells; host or cells: Opossum kidney (OK) cells (ATCC), electroporation
T1 sequence (P48764 26-834): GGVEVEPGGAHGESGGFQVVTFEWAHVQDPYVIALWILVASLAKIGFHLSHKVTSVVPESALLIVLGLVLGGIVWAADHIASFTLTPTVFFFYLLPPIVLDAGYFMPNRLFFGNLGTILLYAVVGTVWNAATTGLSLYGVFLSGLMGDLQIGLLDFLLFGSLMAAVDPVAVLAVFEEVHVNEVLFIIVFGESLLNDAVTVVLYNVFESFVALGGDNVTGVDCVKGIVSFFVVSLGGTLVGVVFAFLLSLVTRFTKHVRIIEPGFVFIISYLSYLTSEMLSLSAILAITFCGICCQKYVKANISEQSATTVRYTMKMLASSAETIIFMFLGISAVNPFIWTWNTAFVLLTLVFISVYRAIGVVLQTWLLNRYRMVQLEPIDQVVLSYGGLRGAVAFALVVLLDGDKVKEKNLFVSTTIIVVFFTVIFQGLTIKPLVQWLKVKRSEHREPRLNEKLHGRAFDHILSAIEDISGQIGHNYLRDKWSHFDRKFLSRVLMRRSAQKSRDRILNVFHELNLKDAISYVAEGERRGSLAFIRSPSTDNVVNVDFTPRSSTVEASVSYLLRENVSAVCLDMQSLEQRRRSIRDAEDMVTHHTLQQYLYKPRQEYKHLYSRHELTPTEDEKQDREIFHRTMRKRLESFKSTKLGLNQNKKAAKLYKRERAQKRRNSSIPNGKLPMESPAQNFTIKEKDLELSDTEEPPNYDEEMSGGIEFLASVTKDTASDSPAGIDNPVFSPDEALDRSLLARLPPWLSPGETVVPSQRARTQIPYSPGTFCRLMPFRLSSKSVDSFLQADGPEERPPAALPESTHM

[3] = tested on: absorption of sodium from the intestinal lumen; test: Inhibition of intestinal sodium absorption: urinary sodium (uNa) 16 h after single oral dose in rats; format: in vivo, rat; settings: for UNa (%): urinary Na excretion as % of vehicle; for Urine Na % of control: oral gavage, 16 h post-dose
Outline: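 Eight-week-old Sprague-Dawley rats (n=6) given single oral gavage of compound or water vehicle in the late afternoon, then kept in metabolic cages with chow and water ad libitum. Urine collected over 16 h; sodium quantified by ion chromatography and expressed as % of vehicle mean, compared by one-way ANOVA with Dunnett's test.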

Rat NHE3 = biological target: T2, Rat NHE3 (Rattus norvegicus, UniProt P26433); test: Cell-based NHE3 activity under prompt conditions (OK cells, BCECF pH recovery), rat NHE3; settings: for Rat NHE3 pIC50 Prompt: Table E5, 001 free base, 002-005 dihydrochloride salt; for Prompt Rat NHE3 pIC50: prompt conditions
T2 construct: expressed in transfected cells; host or cells: Opossum kidney (OK) cells (ATCC), electroporation
T2 sequence (P26433 29-831): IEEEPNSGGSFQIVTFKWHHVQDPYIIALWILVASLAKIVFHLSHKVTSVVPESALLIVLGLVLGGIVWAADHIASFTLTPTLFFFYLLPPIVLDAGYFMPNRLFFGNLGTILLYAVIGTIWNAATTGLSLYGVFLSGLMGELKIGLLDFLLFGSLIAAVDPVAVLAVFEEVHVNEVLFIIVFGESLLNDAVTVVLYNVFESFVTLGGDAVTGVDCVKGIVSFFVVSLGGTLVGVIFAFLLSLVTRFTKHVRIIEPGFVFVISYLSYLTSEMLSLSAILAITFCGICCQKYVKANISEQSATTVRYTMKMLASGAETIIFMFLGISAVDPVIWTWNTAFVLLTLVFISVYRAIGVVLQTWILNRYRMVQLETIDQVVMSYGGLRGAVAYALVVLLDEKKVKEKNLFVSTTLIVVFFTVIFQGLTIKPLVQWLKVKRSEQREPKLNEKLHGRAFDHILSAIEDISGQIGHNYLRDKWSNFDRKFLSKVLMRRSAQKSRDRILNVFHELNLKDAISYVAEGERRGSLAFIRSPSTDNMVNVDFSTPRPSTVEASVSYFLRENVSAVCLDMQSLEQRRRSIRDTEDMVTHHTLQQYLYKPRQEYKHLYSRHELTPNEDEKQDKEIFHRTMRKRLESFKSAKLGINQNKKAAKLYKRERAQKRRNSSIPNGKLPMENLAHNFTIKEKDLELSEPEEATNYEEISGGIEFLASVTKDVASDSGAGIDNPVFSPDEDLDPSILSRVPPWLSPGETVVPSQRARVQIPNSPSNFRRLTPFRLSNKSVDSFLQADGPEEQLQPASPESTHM
Outline: (§1)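 OK cells electroporated with rat or human NHE3 were loaded with 5 μM BCECF-AM in NH4Cl-HEPES (pH 7.4) for 30 min at room temperature, then acid-loaded 10 min in Na+-free choline-HEPES.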

[4] = tested on: absorption of sodium from the intestinal lumen; test: Fecal form score (FFS) 16 h after oral dose in rats; format: in vivo, rat; settings: for Fecal Form Score average: oral gavage, 16 h post-dose, scale 1-5
Outline: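 Eight-week-old Sprague-Dawley rats (n=6) dosed by oral gavage with compound or water vehicle between 4 and 5 PM, then housed in metabolic cages with food and water ad libitum. At 16 h, fecal form scored 1 (normal pellet) to 5 (liquid streams) by two observers; group mean reported.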

Human NHE3 [5] = biological target: T1, Human NHE3; test: Cell-based NHE3 activity under prompt conditions (OK cells, BCECF pH recovery), human NHE3; settings: for pIC50 Prompt: Table E6, NHE3 species not stated; for Prompt Human NHE3 pIC50: prompt conditions
Outline: as §1

NHE-1 = NHE-1 (Homo sapiens, UniProt P19634); test: NHE isoform inhibition, Table 2 adapted from Masereel et al.: NHE-1, species not marked; format: biochemical; settings: from Table 2 values
NHE-1, sequence (P19634 whole entry, species assumed, canonical isoform): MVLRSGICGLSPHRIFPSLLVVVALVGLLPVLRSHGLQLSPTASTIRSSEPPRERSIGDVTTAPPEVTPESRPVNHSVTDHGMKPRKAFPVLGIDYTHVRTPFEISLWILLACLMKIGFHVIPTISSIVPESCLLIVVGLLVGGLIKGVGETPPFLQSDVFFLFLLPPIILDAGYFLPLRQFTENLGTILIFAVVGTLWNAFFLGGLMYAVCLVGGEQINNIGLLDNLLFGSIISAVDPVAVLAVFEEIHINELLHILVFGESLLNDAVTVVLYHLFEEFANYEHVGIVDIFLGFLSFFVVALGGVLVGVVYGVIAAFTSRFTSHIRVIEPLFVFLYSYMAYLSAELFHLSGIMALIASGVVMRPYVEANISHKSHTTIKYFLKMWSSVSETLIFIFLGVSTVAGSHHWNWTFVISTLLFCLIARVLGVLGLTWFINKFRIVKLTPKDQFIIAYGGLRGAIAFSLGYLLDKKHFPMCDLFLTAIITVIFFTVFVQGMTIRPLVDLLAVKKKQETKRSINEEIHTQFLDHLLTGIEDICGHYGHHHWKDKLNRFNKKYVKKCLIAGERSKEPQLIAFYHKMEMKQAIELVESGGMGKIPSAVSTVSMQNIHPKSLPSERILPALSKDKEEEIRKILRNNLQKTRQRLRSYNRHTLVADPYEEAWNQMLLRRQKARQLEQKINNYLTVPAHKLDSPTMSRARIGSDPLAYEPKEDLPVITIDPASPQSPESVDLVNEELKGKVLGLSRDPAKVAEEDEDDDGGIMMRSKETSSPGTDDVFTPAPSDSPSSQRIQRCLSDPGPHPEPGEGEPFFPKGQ
Text: Shown below are examples of various NHE binding small molecules and their selectivity across the NHE-1, -2 and -3 isoforms. (See, e.g., B. Masereel et al., An Overview of Inhibitors of Na+/H+ Exchanger, European J. of Med. Chem., 38, pp. 547-554 (2003), the entire contents of which is incorporated by reference here for all relevant and consistent purposes). […] It is thus possible to engineer NHE3 binding selectivity into a chemical series optimized for potency against another antiporter isoform; that is, the inhibitor classes exemplified in the art may be suitably modified for activity and selectivity against NHE3 (or alternatively NHE-2 and/or NHE-8), as well as being optionally modified to be rendered substantially impermeable or substantially systemically non-bioavailable.

NHE-2 = biological target: T3, NHE-2 (Rattus norvegicus, UniProt P48763); settings: * = from rat; read-out: IC50 or Ki NHE-2; cited from earlier work
T3 sequence (P48763 1-813): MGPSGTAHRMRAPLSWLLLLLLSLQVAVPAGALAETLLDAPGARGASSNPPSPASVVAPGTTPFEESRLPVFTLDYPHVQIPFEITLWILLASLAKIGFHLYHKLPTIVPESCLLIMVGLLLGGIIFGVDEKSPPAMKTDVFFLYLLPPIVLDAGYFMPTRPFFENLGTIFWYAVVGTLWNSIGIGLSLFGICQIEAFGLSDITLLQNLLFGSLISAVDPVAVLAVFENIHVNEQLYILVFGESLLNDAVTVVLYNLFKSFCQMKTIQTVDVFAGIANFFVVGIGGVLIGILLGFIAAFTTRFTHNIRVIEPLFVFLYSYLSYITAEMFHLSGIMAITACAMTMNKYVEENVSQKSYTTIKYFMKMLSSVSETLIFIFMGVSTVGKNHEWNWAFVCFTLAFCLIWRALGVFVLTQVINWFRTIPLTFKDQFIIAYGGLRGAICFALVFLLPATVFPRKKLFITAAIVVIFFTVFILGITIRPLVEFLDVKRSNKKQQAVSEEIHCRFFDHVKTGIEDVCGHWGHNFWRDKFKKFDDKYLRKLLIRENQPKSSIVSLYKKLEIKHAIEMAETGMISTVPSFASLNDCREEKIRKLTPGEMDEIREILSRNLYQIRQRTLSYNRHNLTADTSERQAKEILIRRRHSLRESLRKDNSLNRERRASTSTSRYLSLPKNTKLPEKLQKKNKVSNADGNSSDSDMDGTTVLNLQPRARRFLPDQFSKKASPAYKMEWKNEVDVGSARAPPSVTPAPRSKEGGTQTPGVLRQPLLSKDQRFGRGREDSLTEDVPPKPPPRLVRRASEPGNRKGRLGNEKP

[6] = tested on: phosphorus and calcium levels in the urine of rats; test: Urinary excretion of phosphate and calcium in rats (16 h overnight urine); format: in vivo, rat; settings: rats, oral gavage, 16 h post-dose

- Human NHE3 pIC50 Persistent (Human NHE3 [2]): 8.1
- Rat NHE3 pIC50 Prompt (Rat NHE3): 8.6
- Human NHE3 pIC50 Prompt (Human NHE3 [5]; Table E5, 001 free base, 002-005 dihydrochloride salt): 8
- pIC50 Prompt (Human NHE3 [5]): 8
SMILES: CN1Cc2c(Cl)cc(Cl)cc2[C@H](c2cccc(S(=O)(=O)NCCOCCOCCNC(=O)Nc3ccc(NC(=O)NCCOCCOCCNS(=O)(=O)c4cccc([C@@H]5CN(C)Cc6c(Cl)cc(Cl)cc65)c4)cc3)c2)C1 [Cpd 003]
- Pi uptake after 33P oral challenge [1]: reducing Pi uptake
- Pi uptake after 33P oral challenge in the presence of Ca ([1]; 4 mM Ca, FIG. 1C): significantly reduced Pi uptake
- Pi uptake after 33P oral challenge in the presence of glucose/Ca ([1]; 75 mM glucose + 4 mM Ca, FIG. 1B): significantly reduced Pi uptake
- effect on urinary Na (UNa) ([3]; in words): significant reduction in UNa
- UNa (%) ([3]; single oral dose 1 mg/kg): 22 @ 1 mg/kg %
- effect on fecal form ([4]; in words): change in fecal form

- selectivity: more active against NHE-1 than NHE3 (NHE-1): over 500 fold
SMILES: C/C(=C\c1cccc(/C=C(\C)C(=O)NC(=N)N)c1)C(=O)N=C(N)N [S-2120]

- Rat NHE3 pIC50 Prompt (Rat NHE3): <5.0
- IC50 (Human NHE3 [5]; Table E5, 001 free base, 002-005 dihydrochloride salt, read-out: Human NHE3 pIC50 Prompt (converted)): > 10000 nM
- pIC50 Prompt (Human NHE3 [5]): <5.0
SMILES: CN1Cc2c(Cl)cc(Cl)cc2[C@@H](c2cccc(S(=O)(=O)NCCOCCOCCNC(=O)NCCCCNC(=O)NCCOCCOCCNS(=O)(=O)c3cccc([C@@H]4CN(C)Cc5c(Cl)cc(Cl)cc54)c3)c2)C1 [Cpd 005]
- Pi uptake after 33P oral challenge [1]: inactive
- UNa (%) ([3]; single oral dose 10 mg/kg): 90 @ 10 mg/kg %

SMILES: CCN(c1nc(N)c(C(=O)NC(=N)N)nc1Cl)C(C)C [EIPA, ethyl isopropyl amiloride]
- IC50 (NHE-2): 80 nM

- selectivity: more active against NHE-1 than NHE3 (NHE-1): selectivity is reversed
SMILES: C/C(=C\c1cc(C)ccc1/C=C(\C)C(=O)NC(=N)N)C(=O)N=C(N)N [S-3226]

- Prompt Rat NHE3 pIC50 (Rat NHE3): 6.90
- Prompt Human NHE3 pIC50 (Human NHE3 [5]): 7.85
SMILES: C/C(=C\c1cc(F)c(Oc2ccc(S(=O)(=O)NCCOCCOCCOCCNC(=O)[C@H](O)[C@@H](O)C(=O)NCCOCCOCCOCCNS(=O)(=O)c3ccc(Oc4c(F)cc(/C=C(\C)C(=O)N=C(N)N)cc4F)cc3)cc2)c(F)c1)C(=O)N=C(N)N [compound 5]
- Urine Na % of control ([3]; dose 10 mg/kg): 51%
- Urine Na % of control ([3]; dose 30 mg/kg): 23%
- Fecal Form Score average ([4]; dose 10 mg/kg): 1
- Fecal Form Score average ([4]; dose 30 mg/kg): 2
- Urine P % of control ([6]; dose 10 mg/kg): 65%
- Urine P % of control ([6]; dose 30 mg/kg): 105%

- Prompt Rat NHE3 pIC50 (Rat NHE3): 7.80
- Prompt Human NHE3 pIC50 (Human NHE3 [5]): 8.40
SMILES: C/C(=C\c1cc(F)c(Oc2ccc(S(=O)(=O)NCCOCCOCCOCCNC(=O)N(C)CCCCN(C)C(=O)NCCOCCOCCOCCNS(=O)(=O)c3ccc(Oc4c(F)cc(/C=C(\C)C(=O)N=C(N)N)cc4F)cc3)cc2)c(F)c1)C(=O)N=C(N)N [compound 30]
- Urine Na % of control ([3]; dose 10 mg/kg): 100%
- Fecal Form Score average ([4]; dose 10 mg/kg): 1
- Urine P % of control ([6]; dose 10 mg/kg): 104%

- Prompt Rat NHE3 pIC50 (Rat NHE3): 7.70
- Prompt Human NHE3 pIC50 (Human NHE3 [5]): 8.20
SMILES: CN(CC(=O)NCCOCCOCCNC(=O)NCCOCCOCCOCCN1CCN(c2cccc(-c3nc(NC(=N)N)nc4ccc(Cl)cc34)c2)CC1)CC(=O)NCCOCCOCCNC(=O)NCCOCCOCCOCCN1CCN(c2cccc(-c3nc(NC(=N)N)nc4ccc(Cl)cc34)c2)CC1 [compound 42]
- Urine Na % of control ([3]; dose 10 mg/kg): 94%
- Fecal Form Score average ([4]; dose 10 mg/kg): 1
- Urine P % of control ([6]; dose 10 mg/kg): 94%
